The text below walks through data of patent US20050165025A1, “Combination therapy with 5HT 1A and 5HT 1B-receptor antagonists” (Recordati Ireland Ltd., priority 2004, published 2005).

Each structure is given as a SMILES string. Read-outs that look alike come from different tables or passages of the source.

One experiment deals with anaesthetised rats. Nature of the experiment: Rhythmic bladder-voiding contractions induced by bladder filling in anaesthetised rats. Conditions: compound alone. It counts as in vivo, rat. How it is done: Female Sprague-Dawley rats weighing 225-275 g (Crl: CDo Br, Charles River Italia) were used. The animals were housed with free access to food and water and maintained on a forced 12-hour alternating light-dark cycle at 22-24° C. for at least one week, except during the experiment. The activity on rhythmic bladder voiding contractions was evaluated according to the method of Dray J., Pharmacol. Methods, 13:157, 1985, with some modifications as in Guarneri (Guarneri, Pharmacol. Res. 27:173, 1993. Briefly, the rats were anaesthetised by subcutaneous injection of 1.25 g/kg (5 ml/kg) urethane, after which the urinary bladder was catheterised via the urethra using PE 50 polyethylene tubing filled with physiological saline. The catheter was tied in place with a ligature around the external urethral orifice and was connected to conventional pressure transducers (Statham P23 ID/P23 XL). […] The bladder was then filled via the recording catheter by incremental volumes of warm (37° C.) saline until reflex bladder-voiding contractions occurred (usually 0.8-1.5 ml). For intravenous injection of bioactive compounds, PE 50 polyethylene tubing filled with physiological saline was inserted into the jugular vein. Tested compounds were administered or co-administered in solution in a final volume of 0.5 ml/kg.
From the cystometrogram, the number of contractions recorded 15 minutes before (basal values) and after treatment, as well as the mean amplitude of these contractions (mean height of the peaks in mmHg), was evaluated.
Since most compounds produced an effect that was relatively rapid in onset and led to a complete cessation of bladder contractions, bioactivity was conveniently estimated by measuring the duration of bladder quiescence (i.e., the length of the time in minutes during which no contractions occurred: disappearance time=DT). The administered doses (alone or in combination) of the tested compounds were chosen on the basis of previously published results obtained with the same compounds in the utilized model (Testa et al., J. Pharmacol. Exp. Ther. 290: 1258, 1999; Leonardi et al., J. Pharmacol. Exp. Ther. 299: 1027, 2001; Testa et al., BJU Int. 87: 256, 2001) or of their affinity for the 5HT1A or 5-HT1B receptor.

Experiment [1] concerns the target T1, human 5HT1A-serotonergic receptor (Homo sapiens, UniProt P08908).
T1 construct: expressed in transfected cells; host or cells: HeLa (human), stably transfected; cell membranes
T1 sequence (P08908 1-422): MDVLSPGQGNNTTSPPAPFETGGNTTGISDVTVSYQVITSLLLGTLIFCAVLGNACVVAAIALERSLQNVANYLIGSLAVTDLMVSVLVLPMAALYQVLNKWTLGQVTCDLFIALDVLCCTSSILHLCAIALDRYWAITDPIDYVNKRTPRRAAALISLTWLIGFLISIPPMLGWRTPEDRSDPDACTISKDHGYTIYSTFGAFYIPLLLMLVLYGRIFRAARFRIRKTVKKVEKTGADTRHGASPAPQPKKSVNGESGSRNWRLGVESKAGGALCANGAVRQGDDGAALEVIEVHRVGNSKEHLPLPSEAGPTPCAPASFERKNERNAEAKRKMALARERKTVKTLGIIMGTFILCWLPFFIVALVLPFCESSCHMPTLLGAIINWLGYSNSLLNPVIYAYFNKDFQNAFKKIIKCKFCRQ
Conditions: literature reference given in table; read-out: Binding affinity at 5HT1A receptors, Ki; cited from earlier work.

Experiment [2] addresses T1, human 5HT1A-serotonergic receptor. Put plainly: Radioligand binding to recombinant 5-HT1A receptors ([3H]8-OH-DPAT, HeLa cell membranes). Conditions: Recordati data on file; read-out: Binding affinity at 5HT1A receptors, Ki. As for the experimental part: Genomic clone G-21 coding for the human 5HT1A-serotonergic receptor was stably transfected in a human cell line (HeLa). HeLa cells were grown as monolayers in Dulbecco's modified Eagle medium (DMEM), containing 10% fetal bovine serum, gentamicin ([…]) and 5% carbon dioxide, at 37° C. The cells were detached from the growth flask at 95% confluence by a cell scraper and were lysed in cold 5 mM Tris and 5 mM EDTA buffer (pH 7.4). The homogenates were centrifuged at 40000×g×20 minutes and the pellets were resuspended in a small volume of cold 5 mM Tris and 5 mM EDTA buffer (pH 7.4) and immediately frozen and stored at −70° C. until use. On the day of experiment, the cell membranes were resuspended in incubation buffer: 50 mM Tris HCl (pH 7.4), 2.5 mM MgCl2, […] (Fargin et al., Nature 335, 358, 1988). The membranes were incubated in a fmal volume of 1 ml for 30 minutes at 30° C. with 1 nM [^3H]8—OH-DPAT, in the absence or presence of the test compounds. Non-specific binding was determined in the presence of 10 μM 5-HT. […]
The affinity of the tested compounds was evaluated as inhibition of specific binding of the radioligand to 5-HT1A receptors (IC50) by using the non-linear curve-fitting program Allfit (De Lean et al., Am. J. Physiol. 235: E97, 1978). […]

For `COc1ccccc1N1CCN(CCN(C(=O)C2CCCCC2)c2ccccc2[N+](=O)[O-])CC1` [REC 15/3079, 1-[N-(2-nitrophenyl)-N-cyclohexylcarbonyl-2-aminoethyl]-4-(2-methoxyphenyl)piperazine], in the experiment on anaesthetised rats (0.03 mg/kg i.v.), the “disappearance time (DT) of bladder contractions” value (“disappearance time (DT)” below) is 2.26 ± 0.51 min. Besides, in experiment [1], the Ki (commonly a dissociation constant, usually derived from enzyme kinetics or from competition with a known ligand) is 0.2 nM.

Regarding `O=C1c2ccccc2S(=O)(=O)N1CCCCN1CCN(c2cc(Cl)cc3c2OCCO3)CC1` [Rec 0/031 1-DU 125530, 2-[4-[4-(7-chloro-2,3-dihydro-1,4-benzodioxin-5-yl)piperazin-1-yl]butyl]-1,2-benzisothiazol-3(2H)-one 1,1-dioxide], the “disappearance time (DT)” value in the experiment with anaesthetised rats (0.01 mg/kg i.v.) was found to be 6.96 ± 1.05 min.

Consider `OC(CCN1CCN(c2cccc3[nH]ccc23)CC1)(c1ccccn1)c1ccccn1` [Rec 27/0206, 1-[3-hydroxy-3,3 bis-(2-pyridyl)propyl]-4-(4-indolyl)piperazine], for which, in experiment [2], the Ki came to 4.75 nM. Moreover, the “disappearance time (DT)” value in the experiment on anaesthetised rats (0.1 mg/kg i.v.) amounted to 9.29 ± 0.80 min.

On to `COc1ccc(NC(=O)c2ccc(-c3ccc(-c4noc(C)n4)cc3C)cc2)cc1OCCN(C)C` [SB 216641], for which, in the experiment with anaesthetised rats (0.3 mg/kg i.v.), the “disappearance time (DT)” value was found to be 1.50 ± 0.28 min.

Consider `Cc1nc(-c2ccc(-c3ccc(C(=O)N4CCc5cc6c(cc54)C4(CCN(C)CC4)CO6)cc3)c(C)c2)no1` [SB 224289], for which, in the experiment with anaesthetised rats (1.0 mg/kg i.v.), the “disappearance time (DT)” value was determined as 2.40 ± 0.46 min.

Regarding `COc1ccccc1N1CCN(CCN(C(=O)C2CCCCC2)c2ccccn2)CC1` [WAY 100635, N-[2-[4-(2-methoxyphenyl)piperazin-1-yl]ethyl]-N-(2-pyridyl)cyclohexanecarboxamide], in the experiment on anaesthetised rats (0.01 mg/kg i.v.), the “disappearance time (DT)” value amounted to 10.39 ± 1.45 min.
